Reference: patent US9179694B2, “Method and composition for enhancing milk production and milk component concentrations” (PURINA ANIMAL NUTRITION LLC, priority 2003, dated 2015)
Marks after values point to notes of the source that are not given here.

Test: Fat content of produced milk in sorbitol feeding trials
Assay type: in vivo, Holstein cows
Conditions: for Fat in Produced Milk: Pre-Partum Trial #1 (75/0/0 g/day in wk −3..−1/+1..+4/+5..+8)
Experimental: To determine the weight percent total fat, wet basis, in a sample, the actual weight of fat in the sample is determined in accordance with Method #974.09 (33.7.18) of Official Methods of Analysis, Association of Official Analytical Chemists (AOAC) (16th Ed., 1995). The weight percent total fat, wet basis, is then calculated by dividing the actual weight of fat in the sample by the actual weight of the sample. Each cow of each of the six different trials (Control Trial #1, Control Trial #2, Pre-Partum Trial #1, Pre-Partum Trial #2, Pre/Post Trial #1, and Pre/Post Trial #2) was milked three times daily and the weight of produced milk by each cow was recorded at each milking. The milk from each cow was sampled once per week (⅓ of the sample volume from each of the three milkings occurring on the weekly milk sampling day) and was analyzed for true protein, total fat, lactose, and total solids, as detailed in the property determination and characterization techniques presented above. Additionally, samples of blood were periodically obtained from each cow during the four trials (Control Trial 2, Pre-Partum Trial #2, Pre/Post Trial #1, and Pre/Post Trial #2) encompassed in Example Two and were analyzed for non-esterified fatty acid (NEFA) content as detailed in the property determination and characterization techniques presented above. No NEFA analysis was conducted on the cows employed in Control Trial #1 or Pre-Partum Trial #1 that are the subject of Example One. Example One includes Control Trial #1 and Pre-Partum Trial #1. Both primiparious cows and multiparious cows were included in Control Trial #1 and Pre-Partum Trial #1. Five primiparious cows and fifteen multiparious cows were included in Control Trial #1; likewise, five primiparious cows and fifteen multiparious cows were included in Pre-Partum Trial #1. All cows included in Control Trial #1 and Pre-Partum Trial #1 were Holsteins. Example Two includes Control Trial #2, Pre-Partum Trial #2, Pre/Post Trial #1, and Pre/Post Trial #2. Only multiparious, Holstein cows were included in Control Trial #2, […], Pre/Post Trial #1, and Pre/Post Trial #2. Eighteen multiparious cows were included in both Control Trial #2 and Pre-Partum Trial #2, while sixteen multiparious cows were included in Pre/Post Trial #1 and seventeen multiparious cows were included in Pre/Post Trial #2.

OC[C@@H](O)[C@@H](O)[C@H](O)[C@@H](O)CO [sorbitol]
Fat in Produced Milk (multiparious cows, weeks +1 through +8): 3.50 wt % | Fat in Produced Milk (primiparious cows, weeks +1 through +8): 4.2 wt % | increase in fat concentration in the produced milk (Pre-Partum Trial #1 (75 g/day wk −3..−1 only) versus Control Trial #1, primiparious cows, weeks +1 through +8): 11.7% | Fat Content of Produced Milk (Pre-Partum Trial #2 (75/0/100 g/day in wk −3..−1/+1..+4/+5..+8), multiparious cows, week +1): 4.91^a weight % | Fat Content of Produced Milk (Pre-Partum Trial #2 (75/0/100 g/day in wk −3..−1/+1..+4/+5..+8), multiparious cows, week +2): 4.50 weight % | Fat Content of Produced Milk (Pre-Partum Trial #2 (75/0/100 g/day in wk −3..−1/+1..+4/+5..+8), multiparious cows, week +3): 4.09 weight % | Fat Content of Produced Milk (Pre-Partum Trial #2 (75/0/100 g/day in wk −3..−1/+1..+4/+5..+8), multiparious cows, week +4): 3.41^a weight % | Fat Content of Produced Milk (Pre-Partum Trial #2 (75/0/100 g/day in wk −3..−1/+1..+4/+5..+8), multiparious cows, week +5): 3.35 weight % | Fat Content of Produced Milk (Pre-Partum Trial #2 (75/0/100 g/day in wk −3..−1/+1..+4/+5..+8), multiparious cows, week +6): 3.17^a weight % | Fat Content of Produced Milk (Pre-Partum Trial #2 (75/0/100 g/day in wk −3..−1/+1..+4/+5..+8), multiparious cows, week +7): 3.29 weight % | Fat Content of Produced Milk (Pre-Partum Trial #2 (75/0/100 g/day in wk −3..−1/+1..+4/+5..+8), multiparious cows, week +8): 3.34^ab weight % | Fat Content of Produced Milk (Pre-Partum Trial #2 (75/0/100 g/day in wk −3..−1/+1..+4/+5..+8), multiparious cows, weeks +1 through +4): 4.23^a weight % | Fat Content of Produced Milk (Pre-Partum Trial #2 (75/0/100 g/day in wk −3..−1/+1..+4/+5..+8), multiparious cows, weeks +1 through +8): 3.75^a weight % | Fat Content of Produced Milk (Pre-Partum Trial #2 (75/0/100 g/day in wk −3..−1/+1..+4/+5..+8), multiparious cows, weeks +5 through +8): 3.27^ab weight % | Fat Content of Produced Milk (Pre/Post Trial #1 (150/125/100 g/day in wk −3..−1/+1..+4/+5..+8), multiparious cows, week +1): 5.49^ab weight % | Fat Content of Produced Milk (Pre/Post Trial #1 (150/125/100 g/day in wk −3..−1/+1..+4/+5..+8), multiparious cows, week +1, two-trial comparison with Control Trial #2 (Table 23)): 5.49 weight % | Fat Content of Produced Milk (Pre/Post Trial #1 (150/125/100 g/day in wk −3..−1/+1..+4/+5..+8), multiparious cows, week +2): 4.41 weight % | Fat Content of Produced Milk (Pre/Post Trial #1 (150/125/100 g/day in wk −3..−1/+1..+4/+5..+8), multiparious cows, week +2, two-trial comparison with Control Trial #2 (Table 23)): 4.41 weight % | Fat Content of Produced Milk (Pre/Post Trial #1 (150/125/100 g/day in wk −3..−1/+1..+4/+5..+8), multiparious cows, week +3): 4.22 weight % | Fat Content of Produced Milk (Pre/Post Trial #1 (150/125/100 g/day in wk −3..−1/+1..+4/+5..+8), multiparious cows, week +3, two-trial comparison with Control Trial #2 (Table 23)): 4.22 weight % | Fat Content of Produced Milk (Pre/Post Trial #1 (150/125/100 g/day in wk −3..−1/+1..+4/+5..+8), multiparious cows, week +4): 4.01^b weight % | Fat Content of Produced Milk (Pre/Post Trial #1 (150/125/100 g/day in wk −3..−1/+1..+4/+5..+8), multiparious cows, week +4, two-trial comparison with Control Trial #2 (Table 23)): 4.01 weight % | Fat Content of Produced Milk (Pre/Post Trial #1 (150/125/100 g/day in wk −3..−1/+1..+4/+5..+8), multiparious cows, week +5): 3.71 weight % | Fat Content of Produced Milk (Pre/Post Trial #1 (150/125/100 g/day in wk −3..−1/+1..+4/+5..+8), multiparious cows, week +5, two-trial comparison with Control Trial #2 (Table 23)): 3.71 weight % | Fat Content of Produced Milk (Pre/Post Trial #1 (150/125/100 g/day in wk −3..−1/+1..+4/+5..+8), multiparious cows, week +6): 3.69^b weight % | Fat Content of Produced Milk (Pre/Post Trial #1 (150/125/100 g/day in wk −3..−1/+1..+4/+5..+8), multiparious cows, week +6, two-trial comparison with Control Trial #2 (Table 23)): 3.69 weight % | Fat Content of Produced Milk (Pre/Post Trial #1 (150/125/100 g/day in wk −3..−1/+1..+4/+5..+8), multiparious cows, week +7): 3.45 weight % | Fat Content of Produced Milk (Pre/Post Trial #1 (150/125/100 g/day in wk −3..−1/+1..+4/+5..+8), multiparious cows, week +7, two-trial comparison with Control Trial #2 (Table 23)): 3.45 weight % | Fat Content of Produced Milk (Pre/Post Trial #1 (150/125/100 g/day in wk −3..−1/+1..+4/+5..+8), multiparious cows, week +8): 3.68^b weight % | Fat Content of Produced Milk (Pre/Post Trial #1 (150/125/100 g/day in wk −3..−1/+1..+4/+5..+8), multiparious cows, week +8, two-trial comparison with Control Trial #2 (Table 23)): 3.68 weight % | Fat Content of Produced Milk (Pre/Post Trial #1 (150/125/100 g/day in wk −3..−1/+1..+4/+5..+8), multiparious cows, weeks +1 through +4): 4.53^ab weight % | Fat Content of Produced Milk (Pre/Post Trial #1 (150/125/100 g/day in wk −3..−1/+1..+4/+5..+8), multiparious cows, weeks +1 through +4, two-trial comparison with Control Trial #2 (Table 23)): 4.53 weight % | Fat Content of Produced Milk (Pre/Post Trial #1 (150/125/100 g/day in wk −3..−1/+1..+4/+5..+8), multiparious cows, weeks +1 through +8): 4.09^ab weight % | Fat Content of Produced Milk (Pre/Post Trial #1 (150/125/100 g/day in wk −3..−1/+1..+4/+5..+8), multiparious cows, weeks +1 through +8, two-trial comparison with Control Trial #2 (Table 23)): 4.09 weight % | Fat Content of Produced Milk (Pre/Post Trial #1 (150/125/100 g/day in wk −3..−1/+1..+4/+5..+8), multiparious cows, weeks +5 through +8): 3.63^b weight % | Fat Content of Produced Milk (Pre/Post Trial #1 (150/125/100 g/day in wk −3..−1/+1..+4/+5..+8), multiparious cows, weeks +5 through +8, two-trial comparison with Control Trial #2 (Table 23)): 3.63 weight % | increase in fat concentration in milk (Pre/Post Trial #1 (150/125/100 g/day) versus Control Trial #2, multiparious cows, weeks +1 through +8 (Table 23)): 7.3% | increase in fat concentration in milk (Pre/Post Trial #1 (150/125/100 g/day) versus Control Trial #2, multiparious cows, weeks +5 through +8 (Table 23)): 13.8% | greater fat concentration in milk (Pre/Post Trial #1 (150/125/100 g/day) versus Pre/Post Trial #2 (75/75/100 g/day), multiparious cows, week +8): 17.2% | Fat Content of Produced Milk (Pre/Post Trial #2 (75/75/100 g/day in wk −3..−1/+1..+4/+5..+8), multiparious cows, week +1): 6.23^b weight % | Fat Content of Produced Milk (Pre/Post Trial #2 (75/75/100 g/day in wk −3..−1/+1..+4/+5..+8), multiparious cows, week +2): 4.73 weight % | Fat Content of Produced Milk (Pre/Post Trial #2 (75/75/100 g/day in wk −3..−1/+1..+4/+5..+8), multiparious cows, week +3): 4.21 weight % | Fat Content of Produced Milk (Pre/Post Trial #2 (75/75/100 g/day in wk −3..−1/+1..+4/+5..+8), multiparious cows, week +4): 3.87^b weight % | Fat Content of Produced Milk (Pre/Post Trial #2 (75/75/100 g/day in wk −3..−1/+1..+4/+5..+8), multiparious cows, week +5): 3.89 weight % | Fat Content of Produced Milk (Pre/Post Trial #2 (75/75/100 g/day in wk −3..−1/+1..+4/+5..+8), multiparious cows, week +6): 3.48^ab weight % | Fat Content of Produced Milk (Pre/Post Trial #2 (75/75/100 g/day in wk −3..−1/+1..+4/+5..+8), multiparious cows, week +7): 3.47 weight % | Fat Content of Produced Milk (Pre/Post Trial #2 (75/75/100 g/day in wk −3..−1/+1..+4/+5..+8), multiparious cows, week +8): 3.14^a weight % | Fat Content of Produced Milk (Pre/Post Trial #2 (75/75/100 g/day in wk −3..−1/+1..+4/+5..+8), multiparious cows, weeks +1 through +4): 4.79^b weight % | Fat Content of Produced Milk (Pre/Post Trial #2 (75/75/100 g/day in wk −3..−1/+1..+4/+5..+8), multiparious cows, weeks +1 through +8): 4.13^b weight % | Fat Content of Produced Milk (Pre/Post Trial #2 (75/75/100 g/day in wk −3..−1/+1..+4/+5..+8), multiparious cows, weeks +5 through +8): 3.43^ab weight % | greater fat concentration in milk (Pre/Post Trial #2 (75/75/100 g/day) versus Pre-Partum Trial #2 (75/0/100 g/day), multiparious cows, weeks +1 through +4): 13.24% | greater fat concentration in milk (Pre/Post Trial #2 (75/75/100 g/day) versus Pre-Partum Trial #2 (75/0/100 g/day), multiparious cows, weeks +1 through +8): 10.1% | increase in fat concentration in milk (average of means of Pre-Partum Trial #2, Pre/Post Trial #1 and Pre/Post Trial #2 versus Control Trial #2, multiparious cows, weeks +1 through +8): 4.7% | increase in fat concentration in milk (average of means of Pre-Partum Trial #2, Pre/Post Trial #1 and Pre/Post Trial #2 versus Control Trial #2, multiparious cows, weeks +5 through +8): 7.9%
